# How the values were obtained:
# [1] = tested on: planktonic Candida auris cells; assay: Growth of planktonic C. auris cells (OD600); assay type: cell-based; conditions: one dose, PAO1 D-EVs 0.25 μg/μl, E. coli D-EVs 0.15 μg/μl, YPD broth
# Method: (§1) FIGS. 16A-16H summarize the EV bacterial protocol adapted for a fungal pathogen, C. auris. […] Fungal cell growth was monitored by measuring the OD600 of the cell culture. […] FIG. 16D illustrates the overall cellular levels of ROS radicals (including ·O2^− and ·OH) of C. auris in YPD broth culture in response to bacterial D-EV treatments. After 24 hr. of growth, C. auris cell culture (OD600=0.5) was mixed with a Cellular ROS Assay Kit (ab186027) and further incubated for 1 hr. Then, one dose of D-EVs extracted from either PAO1 (0.25 μg/μl) or E. coli (0.15 μg/μl) was added, followed by immediate monitoring of changes in fluorescence intensity (n=4). […] H2O2 (20%) was used as a positive control to stimulate C. auris to produce ·OH species.
# Candida auris (B11220, ATCC) frozen at −80° C. was activated in yeast peptone dextrose (YPD) broth overnight at 37° C. Cells were be maintained at 4° C. on YPD-agar plates. The in vitro C. auris biofilms were be prepared by first activating the cultures at 4° C. in YPD broth at 37° C., then transferring a volume of 2.5 μL (OD600˜0.5) onto sterile 13-mm polycarbonate membrane (WHA10417401, Sigma-Aldrich) on YPD-agar plates (FIG. 17). The plates were then incubated at 37° C. for 0 h, 24 h, 48 h, and 72 h, respectively, for the following experiments.
# C. auris = assay: Cellular ROS assay in C. auris culture; assay type: cell-based, Candida auris; conditions: PAO1 D-EVs 0.25 μg/μl, E. coli D-EVs 0.15 μg/μl; ertapenem, tetracycline 2 mg/mL
# Method: as §1
# [2] = tested on: P. aeruginosa PAO1 biofilms; assay: PAO1 colony biofilm growth, viable cell count (Log10 CFU/cm^2); assay type: cell-based; conditions: for Effect of ferric ions alone on 96-h PAO1 biofilm growth (in words): 10, 25, 50 μM Fe^3+
# Method: P. aeruginosa (PAO1) from a −80° C. freezer was streaked on tryptic soy agar (TSA, BD Difco™ Dehydrated Culture Media, DF0369-17-6) and incubated overnight at 37° C. The P. aeruginosa was maintained on TSA plates at 4° C. and an inoculum was prepared by transferring a touch from this plate into 10 mL of tryptic soy broth (BD Bacto™) and incubated overnight. Then, a volume of 100 μL (OD600=0.1) was used to seed 47-mm sterilized filter membranes (Membrane Solutions MCE Gridded Membrane Filter, Mixed Cellulose Esters Membrane Filter, Pore Size: 0.45 μm) on TSA petri dishes. The plates were incubated at either 37° C. or 33° C. At desired time points (0, 1, 2, 4, 8, 12, 16, 24, 32, 48, 72, 85, 96, and 120 h), the biofilm was suspended in 0.9% NaCl to prepare serial dilutions for colony forming unit (CFU) counting. The viable cell concentration (CFU/cm^2) was calculated according to the literature. All experiments were done under aseptic conditions. TSA and TSB were autoclaved at 121° C. and […] for 50 min/L.
# To quantify the effects of G-EVs and D-EVs on the growth behavior of P. aeruginosa PAO1 biofilms, biofilms grown for 2 hr. (lag phase), 8 hr. (exponential phase), and 24 hr. (stationary phase) were tested. Briefly, an inoculum was prepared by transferring a touch from the P. aeruginosa PAO1-TSA plates into 10 ml of TSB and incubating the plates at 37° C. overnight. A volume of 2.5 μL (OD600˜0.5) was used to seed sterile 13-mm polycarbonate membranes (WHA10417401, Sigma-Aldrich) on TSA plates and incubated at 37° C. Biofilms grown for 2 hr. were treated with one dose of G-EVs (0.028 μg/μL) or D-EVs (0.33 μg/μL) and incubated at 37° C. for 24 hours. Biofilms grown for 8 hr. were treated with one dose of G-EVs (0.037 μg/μL) or D-EVs (0.33 μg/μL) and incubated at 37° C. for 24 hours. Three doses of D-EVs (0.33 μg/μL) were applied (one dose every 24 h) to biofilms grown for 24 h, and the plates were incubated at 37° C. Then viable cells were counted and reported as CFU/cm^2.
# To test if the suppression of PAO1 biofilm growth is caused by D-EV-induced excessive iron uptake by D-EV recipient cells leading to the activation of bacterial cell death, the research team examined whether D-EV-induced excessive iron uptake could improve the poor efficacy of the D EVs against 96-h biofilms (FIG. 9D). […]
# The viability of treated P. aeruginosa PAO1 biofilms was investigated and compared to control. P. aeruginosa PAO1 biofilms at 2 hr., 8 hr., 24 hr., 48 hr., and 96 hr. were individually treated with a one-dose of P. aeruginosa PAO1 D-EVs±iron (50 μM) and the biofilm inhibition was quantified in the term of log10 CFU·cm^−2.
structure (smiles),measurement,setting,value
"OO [H2O2 (30%), H2O2]",C. auris growth (in words),[1],effectively inhibited fungal growth
C[C@@H](O)[C@H]1C(=O)N2C(C(=O)O)=C(S[C@@H]3CN[C@H](C(=O)Nc4cccc(C(=O)O)c4)C3)[C@H](C)[C@H]12 [ertapenem],ROS production in C. auris (in words),C. auris,No change in ROS production
[Fe+3] [ferric ions],Growth of PAO1 biofilms at 2-96 hr. after one dose (in words),"[2]; 2, 8, 24, 48, 96 hr. biofilms, one dose D-EVs ± iron 50 μM, 24 hr. exposure",increased
same,Effect of ferric ions alone on 96-h PAO1 biofilm growth (in words),[2]; 96-h biofilms,marginally promoted biofilm growth
same,Effect of ferric ions alone on 96-h PAO1 biofilm growth (in words),"[2]; 96-h biofilms, listed as Ferric ions",very minimal effect
same,Growth of 96-h PAO1 biofilm with ferric ions alone,"[2]; 96-h biofilms, ferric ions alone (10-50 μM), PBS control ~8.2",8.7 log10

# Reference: patent publication US20250281548A1, “ANTIMICROBIAL COMPOSITIONS COMPRISING EXTRACELLULAR VESICLES AND METHODS THEREOF” (Washington State University, priority 2024, published 2025)
